According to US12059502B2, “Composition and method for pretreating cancer” (Valcuria AB, priority 2016, dated 2024):
Converted amounts (≈) assume the structure as drawn. Read-outs that look alike come from different tables or passages of the source.

How the values were obtained:
[1] = cited from earlier work
[2] = according to Sigma-Aldrich; cited from earlier work
[3] = Reported physicochemical properties of valproic acid; conditions: based on reported absorption and solubility values
[4] = 70 kg person, Gugler and Unruh 1980
[5] = systemic disposition PK of the reported 250 mg single dose study

For `CCCC(CCC)C(=O)O` [VPA, Valproic acid], the CL [1, 4] is given as 0.61 L/h, the F [1, 4] is given as 100% and the Vd [1, 4] is given as 10.6 L. For the same compound, the “rate of absorption of released drug, first order (kabs)” value ([1]; based on data of Dutta and Reed 2007) was 61 h⁻¹, the “time up to which intestinal absorption was measured by deconvolution” value ([1]; oral, Dutta and Zhang, 2004) was “up to 22 hr” and the “bioavailability (F)” value ([1]; oral, immediate release, modified release and extended release formulations) was roughly 100%. The CL [1, 5] was 0.52 L/h, the V [1, 5] was 7.1 L and the solubility in water [2] was 50 mg/mL (≈ 347 mM). For the same compound, the “biopharmaceutical classification system (BCS) class” value [3] was “class I”.
